In publication PMC8510124, “Design, Synthesis, Biological Evaluation and In Silico Study of Benzyloxybenzaldehyde Derivatives as Selective ALDH1A3 Inhibitors” (Molecules, 2021):

Columns and labels:
ALDH1A3 [1] = target: T1, ALDH1A3 (Homo sapiens, UniProt P47895); test: fluorimetric NADH assay, single point […], […] hexanal (near Km); format: biochemical; conditions: read-out: Remaining Activity ± SE (%) at 10 μM Compound / ALDH1A3 / [S] near Km (10 μM Hex)
T1 construct: recombinant, N-terminal (His)6 tag
T1 sequence (P47895 2-512): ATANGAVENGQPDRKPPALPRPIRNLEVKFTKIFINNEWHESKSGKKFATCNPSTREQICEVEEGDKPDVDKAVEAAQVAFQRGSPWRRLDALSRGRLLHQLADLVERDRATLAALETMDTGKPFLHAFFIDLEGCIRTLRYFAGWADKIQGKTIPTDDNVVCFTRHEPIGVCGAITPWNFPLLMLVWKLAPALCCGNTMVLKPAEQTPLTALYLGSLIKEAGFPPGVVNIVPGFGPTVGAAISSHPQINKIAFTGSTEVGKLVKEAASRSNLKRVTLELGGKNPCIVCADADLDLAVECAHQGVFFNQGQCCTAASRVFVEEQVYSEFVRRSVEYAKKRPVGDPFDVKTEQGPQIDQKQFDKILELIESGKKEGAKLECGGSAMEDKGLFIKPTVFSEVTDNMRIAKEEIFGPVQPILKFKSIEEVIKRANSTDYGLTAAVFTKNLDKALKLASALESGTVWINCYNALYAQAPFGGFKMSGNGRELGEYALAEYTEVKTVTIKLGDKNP

ALDH1A3 [2] = target: T1, ALDH1A3; test: fluorimetric NADH dehydrogenase assay, […] hexanal, IC50 curve; format: biochemical; conditions: read-out: IC50 (μM) ± SE ALDH1A3

Structure (SMILES): COc1cc(C=O)cc(OC)c1OC(=O)c1ccc(F)cc1 [ABMM-18, 4-Formyl-2,6-dimethoxyphenyl 4-Fluorobenzoate]
- remaining activity at 10 µM (ALDH1A3 [1]): 16 ± 3.4%

Structure (SMILES): COc1cc(C=O)ccc1OC(=O)c1ccc(Cl)cc1 [ABMM-1, 4-Formyl-2-methoxyphenyl 4-Chlorobenzoate]
- remaining activity at 10 µM (ALDH1A3 [1]): 21.07 ± 0.1%

Structure (SMILES): COc1cc(C=O)ccc1OCc1ccc(Cl)cc1 [ABMM-16, 4-((4-Chlorobenzyl)oxy)-3-methoxybenzaldehyde]
- IC50 (ALDH1A3 [2]): 1.29 ± 0.1 µM

Structure (SMILES): O=Cc1ccc(OCc2ccc(Cl)cc2)cc1 [ABMM-15, 4-((4-Chlorobenzyl)oxy)benzaldehyde]
- IC50 (ALDH1A3 [2]): 0.23 ± 0.05 µM
